Source: US11965886B2, “Method of immobilizing a cell on a support using compounds comprising a polyethylene glycol moiety” (Roche Diagnostics Operations, Inc., priority 2013, dated 2024)
Values joined by “and” are separate entries in the source; they are usually repeats but may differ in a detail not shown here. Identical values can stand only once. Like-named read-outs stand apart in the source and are kept apart here.

Legend:
WBCs [1] = test: Immobilization of cells: recovery rate of cells on SA (streptavidin) plate or untreated plate (Example 3); assay type: cell-based
Description: The following applies for modular description of the compounds below: X=hydrophobic moiety, […]=fluorescein In the following experiment, the recovery rate of cells was determined.

white blood cells (WBCs) = tested on: white blood cells (WBCs)
Description: In particular, the performance of a single cholesterol-molecule and different dual-linker molecules (i.e. containing two hydrophobic moieties) was tested. In detail, immobilization of white blood cells (WBCs) on a Streptavidin-coated surface using different linker molecules was tested on a 12-well plate: 300 000 WBCs/well. This was followed by the measurement of the cell recovery rate after immobilization and washing of the cells using the Cellavista instrument (10× Nuclei Operator s9s5).

Epithelial cells = test: Labelling of cells using compounds (staining/uptake); assay type: cell-based
Source text: (§1) 2. Labelling of Cells Using Compounds Useful in Methods of the Invention

MDA-MB468 = test: as above; assay type: cell-based
Source text: as §1

U937 = test: as above; assay type: cell-based
Source text: as §1

WBCs [2] = test: as above; assay type: cell-based
Source text: as §1

WBC = WBC recovery rate after centrifugation (cell stabilization, Example 5); assay type: cell-based; conditions: 300×g; for WBC recovery rate after centrifugation at different points of time, dependence on concentration: 0.35 nmol molecule A, 100 nmol and 0.5 nmol molecule B
Description: A) WBC Recovery Rate after Centrifugation and Cell Immobilization Using Different Molecules
Centrifugation characteristics: 10 min, 300×g.
B) WBC Recovery Rate after Centrifugation Using Different Compounds—Different Points of Time
Centrifugation characteristics: 10 min, 300×g. A: Choleseryl-TEG-Cholesteryl-TEG-(SpacerC18)7-Fluos-Biotin-TEG.
C) WBC Recovery Rate after Centrifugation—Different Experimenters
Centrifugation characteristics: 10 min, 300×g. Molecule: Cholesteryl-TEG-Cholesteryl-TEG-(SpacerC18)7-Fluos-Biotin-TEG.
D) WBC Recovery Rate after Centrifugation—Different Points of Time and Centrifugation Settings
Centrifugation characteristics: 20 min, 300×g.

Hela = test: Labelling of cells using compounds (staining/uptake); assay type: cell-based
Source text: as §1

[3] = Sample 1, first block (concentration not given), 300 000 WBCs/well
[4] = Sample 1, compound concentration: 1 nmol/10e6 WBCs
[5] = Sample 1, compound concentration: 1 nmol/10e6 WBCs, 300 000 WBCs/well
[6] = Sample 2, compound concentration: 100 pmol/10e6 WBCs
[7] = Sample 2, compound concentration: 100 pmol/10e6 WBCs, 300 000 WBCs/well
[8] = Sample 2, compound concentration: 1 nmol/10e6 WBCs
[9] = Sample 2, compound concentration: 1 nmol/10e6 WBCs, 300 000 WBCs/well
[10] = cells treated with compound, streptavidin plate, repeated experiments

## CCCCCCCC/C=C\CCCCCCCC(=O)OC[C@H](COP(=O)([O-])OCCNC(=O)CCCCCNC(=O)CCCC[C@@H]1SC[C@@H]2NC(=O)N[C@@H]21)OC(=O)CCCCCCC/C=C\CCCCCCCC.[Na+]
WBCs [1]; 10 pmol/10e6 cells
  Recovery Rate: 66.30% and 74.40%
WBCs [1]; 500 pmol/10e6 cells
  Recovery Rate: 80.16% and 95.94%
WBCs [1]; 1 nmol/10e6 cells
  Recovery Rate: 95.80% and 101.76%
WBCs [1]; 10 nmol/10e6 cells
  Recovery Rate: 89.19% and 105.12%

## CCCCCCCCCCCCCCCC(=O)OC[C@H](COP(=O)([O-])OCCNC(=O)CCCCCNC(=O)CCCC[C@@H]1SC[C@@H]2NC(=O)N[C@@H]21)OC(=O)CCCCCCCCCCCCCCC.[Na+]
WBCs [1]; 10 pmol/10e6 cells
  Recovery Rate: 54.30% and 45.40%
WBCs [1]; 100 pmol/10e6 cells
  Recovery Rate: 72.20% and 86.10%
WBCs [1]; 300 pmol/10e6 cells
  Recovery Rate: 51.80% and 55.90% and 52.60% and 73.07% and 61.27% and 71.40%
WBCs [1]; 1 nmol/10e6 cells
  Recovery Rate: 84.90% and 89.30%

## 5′-(Cholesterol-TEG)1-Doubler-dT-Biotin-3′ [29.891272]
WBCs [1]; 10 pmol/10e6 cells
  Recovery Rate: 65.03%
WBCs [1]; 100 pmol/10e6 cells
  Recovery Rate: 83.08% and 56.49% and 62.11% and 82.01%
WBCs [1]; 1 nmol/10e6 cells
  Recovery Rate: 87.93% and 72.13% and 82.47%
WBCs [1]; 10 nmol/10e6 cells
  Recovery Rate: Cells lysed
White blood cells (WBCs); [3]
  Recovery Rate: 56.49%
  cells counted per well: 147132 and 179643 and 181620
White blood cells (WBCs); [4]
  Recovery Rate: 72.13%
White blood cells (WBCs); [5]
  cells counted per well: 199973 and 220701 and 228481
White blood cells (WBCs); [6]
  Mean (cells counted per well): 186316.33
  Recovery Rate: 62.11%
White blood cells (WBCs); [7]
  cells counted per well: 161504 and 201424 and 196021
White blood cells (WBCs); [8]
  Mean (cells counted per well): 247418.33
  Recovery Rate: 82.47%
White blood cells (WBCs); [9]
  cells counted per well: 241232 and 254894 and 246129
White blood cells (WBCs); conclusion of Example 4
  cell immobilization characteristics, mono linker vs dual linker: shows similar cell immobilization characteristics compared dual linker molecules

## 5′-(Cholesteryl-TEG)2-PEG2000-Fluos-Biotin_TEG-3′ INVERS [29.891250]
WBCs [1]; 100 pmol/10e6 cells
  Recovery Rate: 48.66%
WBCs [1]; 1 nmol/10e6 cells
  Recovery Rate: 81.29%

## 5′-(Cholesteryl-TEG)2-Spacer C12-dT-Biotin_TEG-3′ INVERS [29.891253]
WBCs [1]; 10 pmol/10e6 cells
  Recovery Rate: 47.42%
WBCs [1]; 100 pmol/10e6 cells
  Recovery Rate: 73.46% and 41.44% and 62.59% and 71.41%
WBCs [1]; 1 nmol/10e6 cells
  Recovery Rate: 96.84% and 72.13% and 79.02% and 86.21%
WBCs [1]; 10 nmol/10e6 cells
  Recovery Rate: 102.36%
White blood cells (WBCs); [3]
  Recovery Rate: 41.44%
  cells counted per well: 105061 and 128195 and 139678
White blood cells (WBCs); [4]
  Recovery Rate: 72.13%
White blood cells (WBCs); [5]
  cells counted per well: 218861 and 221471 and 208802
White blood cells (WBCs); [6]
  Mean (cells counted per well): 187757.67
  Recovery Rate: 62.59%
White blood cells (WBCs); [7]
  cells counted per well: 178919 and 197130 and 187224
White blood cells (WBCs); [8]
  Mean (cells counted per well): 237052.33
  Recovery Rate: 79.02%
White blood cells (WBCs); [9]
  cells counted per well: 239105 and 240632 and 231420

## 5′-Cholesteryl-TEG-PEG2000-Fluos-3′ [29.891132]
Epithelial cells
  Labelling (staining/uptake) of cells: ✓
MDA-MB468
  Labelling (staining/uptake) of cells: ✓
U937
  Labelling (staining/uptake) of cells: ✓
WBCs [2]
  Labelling (staining/uptake) of cells: ✓ not all

## 5′-CholesterylTEG-CholesterylTEG-(SpacerC18)7-Fluos-BiotinTEG-3′ [29.891222]
WBC; Centrifugation: 10 min
  WBC recovery rate after centrifugation, different experimenters, dependence on concentration: the higher the molecule concentration, the higher the cell recovery rate after centrifugation
  WBC recovery rate after centrifugation at different points of time, dependence on concentration: The higher the molecule concentration, the higher the cell recovery rate after centrifugation
WBC; Experimenters 1, 2 and 3, 10 min
  cell stabilization, dependence on experimenter: cell stabilization is independent on the experimenter

## 5′-CholesterylTEG-CholesterylTEG-PEG2000-BiotinTEG-3′ [29.891137]
WBCs [1]; WBCs, concentration not given
  Recovery Rate: 77.1%

## 5′-CholesterylTEG-SpacerC12-CholesterylTEG-(SpacerC18)7-Fluos-BiotinTEG-3 [29.891224]
WBCs [1]; WBCs, 350 pmol/10e6 cells
  Recovery Rate: 119.4% and 60.6% and 64.4% and 70.3% and 78.1%

## 5′-CholesterylTEG-SpacerC18-CholesterylTEG-(SpacerC18)7-Fluos-BiotinTEG-3′ [29.891225]
WBCs [1]; WBCs, 350 pmol/10e6 cells
  Recovery Rate: 38.8% and 46.5%

## 5′-Myristic acid-CholesterylTEG-(SpacerC18)7-Fluos-BiotinTEG-3′ [29.891227]
WBCs [1]; WBCs, 350 pmol/10e6 cells
  Recovery Rate: 64.9% and 69.6% and 77.8%

## 5′-Myristic acid-Myristic acid-(SpacerC18)7-Fluos-BiotinTEG-3′ [29.891214]
WBCs [1]; WBCs, 350 pmol/10e6 cells
  Recovery Rate: 78.9% and 68.7% and 90.5% and 81.1% and 65.9% and 84.9% and 85.1%
WBCs [1]; [10]
  Recovery rate treated cells (SA-plate): 78.9%

## 5′-Myristic acid-Myristic acid-Myristic acid-(SpacerC18)7-Fluos-BiotinTEG-3′ [29.891221]
WBCs [1]; WBCs, 350 pmol/10e6 cells
  Recovery Rate: 46.0% and 79.4% and 68.8% and 76.5% and 83.4%

## 5′-Myristic acid-Myristic acid-PEG2000-Fluos-BiotinTEG-3′ [29.891194]
WBCs [1]; WBCs, 350 pmol/10e6 cells
  Recovery Rate: 21-26%

## 5′-Myristic acid-Myristic acid-SpacerC18-Fluos-BiotinTEG-3′ [29.891213]
WBCs [1]; WBCs, 350 pmol/10e6 cells
  Recovery Rate: 67.4% and 61.9% and 80.2% and 70.4%
WBCs [1]; [10]
  Recovery rate treated cells (SA-plate): 67.4%

## 5′-Myristic acid-SpacerC9-Myristic acid-(SpacerC18)7-Fluos-BiotinTEG-3′ [29.891218]
WBCs [1]; WBCs, 350 pmol/10e6 cells
  Recovery Rate: 50.3% and 55.1%

## 5′-Myristic acid-SpacerC9-Myristic acid-PEG2000-Fluos-BiotinTEG-3′ [29.891197]
WBCs [2]; remark in the Recovery Rate column
  staining: not good

## 5′-Myristic acid-SpacerC12-Myristic acid-(SpacerC18)7-Fluos-BiotinTEG-3 [29.891219]
WBCs [1]; WBCs, 350 pmol/10e6 cells
  Recovery Rate: 46.3% and 39.4% and 53.7% and 56.6%

## 5′-Myristic acid-SpacerC18-Myristic acid-(SpacerC18)7-Fluos-BiotinTEG-3′ [29.891220]
WBCs [1]; WBCs, 350 pmol/10e6 cells
  Recovery Rate: 35.8% and 41.4% and 55.9% and 63.5%

## 5′-alphaTocopherolTEG-PEG2000-Fluos-3′ [29.891131]
Epithelial cells
  Labelling (staining/uptake) of cells: ✓
MDA-MB468
  Labelling (staining/uptake) of cells: ✓
U937
  Labelling (staining/uptake) of cells: ✓
WBCs [2]
  Labelling (staining/uptake) of cells: ✓ not all

## CCCCCCCCCCCCCCCCCCCCCCN1/C(=C/C=C/c2oc3ccccc3[n+]2CCC)Oc2ccccc21.[I-] [PKH2]
Epithelial cells
  Labelling (staining/uptake) of cells: ✓ not all

## CCCCCCCCCCCCCCCC(=O)OC[C@H](COP(=O)(O)OCCNC(=O)CCc1ccc2n1[B-](F)(F)[N+]1=C(C)C=C(C)C1=C2)OC(=O)CCCCCCCCCCCCCCC.CCN(CC)CC [Phosphatidylethanolamine, N-(4,4-difluoro-5,7-dimethyl-4-bora-3a,4a-diaza-s-indacene-3-propionyl)-1,2-dihexadecanoyl-sn-glycero-3-phosphoethanolamine, triethylammonium salt]
Hela
  Labelling (staining/uptake) of cells: x/✓ very weak

## Biotin-PEG-Lys-(C14)2 [15.260268]
WBCs [1]; 1.77 nmol/10e6 Cells
  Recovery Rate: 85.72
WBCs [1]; 2.16 μg/2 × 10e6 WBCs
  Recovery rate treated cells (SA-plate): 39.6%
WBCs [1]; 21.6 μg/2 × 10e6 WBCs
  Recovery rate treated cells (SA-plate): 46.7%
WBCs [1]; 216 μg/2 × 10e6 WBCs
  Recovery rate treated cells (SA-plate): 51.8%
WBCs [1]; WBCs, concentration not given
  Recovery Rate: 52-86%

## Biotin-PEG-Lysin-(C18)2 [listing 1 of 2 here]
WBC; Centrifugation: 10 min
  enables cell immobilization within: ≤ 3.5 h
  WBC recovery rate after centrifugation at different points of time, dependence on concentration: The higher the molecule concentration, the higher the cell recovery rate after centrifugation

## Biotin-PEG-Lysin-(C18)2 [listing 2 of 2 here]
WBCs [1]; 10 pmol/10e6 cells
  Recovery Rate: 4.8%
WBCs [1]; 100 pmol/10e6 cells
  Recovery Rate: 6.8%
WBCs [1]; 1 nmol/10e6 cells
  Recovery Rate: 21.8% and 29.6%
WBCs [1]; 10 nmol/10e6 cells
  Recovery Rate: 60.6% and 43.0% and 68.5%
WBCs [1]; WBCs, 350 pmol/10e6 cells, 0.00003% Tween22
  Recovery Rate: 15.0%
WBCs [1]; WBCs, 350 pmol/10e6 cells, 0.0001% Tween21
  Recovery Rate: 10.0%
WBCs [1]; WBCs, 350 pmol/10e6 cells, 0.0003% Tween20
  Recovery Rate: 10.0%
WBCs [1]; WBCs, 350 pmol/10e6 cells, 0.001% Tween20
  Recovery Rate: 9.0%
WBCs [1]; WBCs, 0.5 nmol/10e6 cells
  Recovery Rate: 25.0% and 27.0% and 38.0%
WBCs [1]; WBCs, 50 nmol/10e6 cells
  Recovery Rate: 69.0%

## Biotin-PEG-Lysin-(C18)2 [HH1749]
WBC; Centrifugation: 10 min
  WBC recovery rate after centrifugation, dependence on concentration: The higher the concentration of the molecule, the higher the cell recovery rate after centrifugation

## Biotin-PEG-Lysin-(C18)2 [HH1750]
WBC; Centrifugation: 10 min
  WBC recovery rate after centrifugation, dependence on concentration: The higher the concentration of the molecule, the higher the cell recovery rate after centrifugation

## Biotin-PEG-Lysin-(C18)2 [HH1755]
WBC; Centrifugation: 10 min
  WBC recovery rate after centrifugation, dependence on concentration: The higher the concentration of the molecule, the higher the cell recovery rate after centrifugation

## Sulfo-JA133-phenylboronic acid [15.000078]
Epithelial cells
  Labelling (staining/uptake) of cells: ✓
WBCs [2]
  Labelling (staining/uptake) of cells: ✓ not all
